Reference: EP0330017A2, “Use of thiazoles for increasing animal performance” (BOEHRINGER INGELHEIM VETMEDICA GMBH, priority 1988, dated 1989)

Tests used:
[1] = Performance promotion in pigs, 33-day feeding trial (weight gain, feed consumption, carcass quality); type: in vivo, Schweinen; conditions: 8 ppm test compound in feed, 33-day trial, 10 pigs
Excerpt: (§1) Die leistungsfördernde Wirkung der vorstehend erwähnten Thiazole wurde beispielsweise an der Verbindung N-[2-(4-Carboxymethoxyphenyl)-1-methylethenyl]-2-(2-trifluormethyl-thiazol-4-yl)morpholin wie folgt geprüft:
3.) 2 Gruppen von 10 Schweinen, wobei jedes Tier einzeln gefüttert wurde, erhielten identisches Futter und Wasser ad libitum. Die eine Gruppe erhielt zusätzlich 8 ppm der vorstehend erwähnten Verbindung. Während der 33-tägigen Versuchsperiode wurden Gewichtszunahme, Futterverbrauch der Schlachtkörperqualität gegenüber der Kontrollgruppe bestimmt.

[2] = Performance promotion in lambs, 42-day feeding trial (weight gain, carcass quality); type: in vivo, Lämmern; conditions: 42-day trial
Excerpt: as §1
2.) 2 Gruppen von 12 Lämmern erhielten identisches Futter und Wasser ad libitum. Die eine Gruppe erhielt zusätzlich 8 ppm der vorstehend erwähnten Verbindung. Während der 42-tä-gigen Versuchsperiode wurden Gewichtszunahme und Parameter der Schlachtkörperqualität gegenüber der Kontrolle bestimmt.

[3] = Performance promotion in lambs, 33-day feeding trial (weight gain, feed consumption); type: in vivo, Lämmern; conditions: 33-day trial
Excerpt: as §1
1.) 2 Gruppen von 7 Lämmern, wobei jedes Tier einzeln gehalten wurde, erhielten identisches Futter und Wasser ad libitum. Die eine Gruppe erhielt zusätzlich 8 ppm der vorstehend erwähnten Verbindung. Während der 33-tägigen Versuchsperiode wurden Gewichtszunahme und Futterverbrauch gegenüber der Kontrollgruppe bestimmt.

[4] = 8 ppm test compound in feed, 12 lambs
[5] = 8 ppm test compound in feed, 7 lambs

SMILES: CC(Cc1ccc(OCC(=O)O)cc1)N1CCOC(c2csc(C(F)(F)F)n2)C1 (centres unmarked) [Testverbindung]
- Ausschlachtung [1]: 77,2%
- Endgewicht [1]: 97,6 kg
- Futterverwertung (kg Futter/kg Zunahme) [1]: 3,17 kg Futter/kg Zunahme
- Gewichte verschiedener Teilstücke: Rippe [1]: 7,25 kg
- Gewichte verschiedener Teilstücke: Schinken [1]: 7,46 kg
- Gewichte verschiedener Teilstücke: Schulter [1]: 9,48 kg
- Gewichtszunahme [1]: 754,0 g/Tag
- Rückenmuskelfläche [1]: 32,3 cm²
- Endgewicht [2, 4]: 46,6 kg
- Gewicht des musculus longissimus dorsi [2, 4]: 324,0 g
- Gewichtszunahme [2, 4]: 320,0 g/Tag
- Rückenfettdicke [2, 4]: 1,78 mm
- Schlachtkörperzusammensetzung: Fett [2, 4]: 16,1%
- Schlachtkörperzusammensetzung: Fleisch [2, 4]: 69,1%
- Schlachtkörperzusammensetzung: Knochen [2, 4]: 14,8%
- Gewicht des musculus longissimus dorsi, Abweichung zur Kontrolle ([2]; 8 ppm vs 0 ppm control, lambs): +6,9%
- Schlachtkörperzusammensetzung: Fett, Abweichung zur Kontrolle ([2]; 8 ppm vs 0 ppm control, lambs): -6,9%
- Schlachtkörperzusammensetzung: Fleisch, Abweichung zur Kontrolle ([2]; 8 ppm vs 0 ppm control, lambs): +1,2%
- Schlachtkörperzusammensetzung: Knochen, Abweichung zur Kontrolle ([2]; 8 ppm vs 0 ppm control, lambs): +2,8%
- Endgewicht [3, 5]: 43,9 kg
- Futteraufnahme [3, 5]: 1598,0 g/Tag
- Futterverwertung (kg Zunahme/kg Futter) [3, 5]: 0,161 kg Zunahme/kg Futter
- Gewichtszunahme [3, 5]: 258,0 g/Tag
- Futteraufnahme, Abweichung zur Kontrolle ([3]; 8 ppm vs 0 ppm control, lambs): +4,4%
- Futterverwertung (kg Zunahme/kg Futter), Abweichung zur Kontrolle ([3]; 8 ppm vs 0 ppm control, lambs): +50,5%
- Gewichtszunahme, Abweichung zur Kontrolle ([3]; 8 ppm vs 0 ppm control, lambs): +57,3%
